In ChEMBL document CHEMBL5543168, “Discovery of Urea Derivatives of Celastrol as Selective Peroxiredoxin 1 Inhibitors against Colorectal Cancer Cells” (J Med Chem, 2024):
Calls of active or inactive are those of the source. No cut-off for these calls is given here.

Assays:
[1] = tested on: SW-620; assay: Antitumor activity against human SW620 cells xenografted in BALB/c nude mouse assessed as decrease in Ki-67 level at 2 mg/kg, ip qd for 16 days by IHC analysis; format: functional, organism-based; details: time 16.0 day
[2] = tested on: SW-620; assay: Inhibition of cell viability in human SW620 cells incubated for 72 hrs by Cell Titer Glo assay; format: functional, cell-based; details: SW-620, 72 h
[3] = tested on: SW-620; assay: Induction of mitochondrial membrane potential depolarization in human SW620 cells assessed as decrease in JC-1-stained red cells incubated for 48 hrs by flow cytometry; format: functional, cell-based; details: dose 0.5-2 µM

Q: Which results are given for `COC(=O)C1(NC(=O)N[C@]2(C)CC[C@]3(C)CC[C@]4(C)C5=CC=C6C(=CC(=O)C(O)=C6C)[C@]5(C)CC[C@@]4(C)[C@@H]3C2)CCC1`?
A: Activity [1]: Active; IC50 [2]: 320 nM; Activity [3]: Dose-Dependent Effect
